Results published in paper PMC3358308 (2012).

How the values were obtained:
[1] = test system: Oxy28 (DNA, G4) GGGGTTTTGGGGTTTTGGGGTTTTGGGG; assay: UV-Vis absorption titration, Job plot, fluorescence; details: K+ 50 mM (KCl); 10 mM Tris-HCl pH 7.0, 1 mM EDTA, 25 °C; 5 µM compound; Scatchard two-site, constants not given
[2] = test system: LD (DNA, duplex) GCGCAATTGCGC; assay: UV-Vis absorption, fluorescence; details: K+ 50 mM (KCl); 10 mM Tris-HCl pH 7.0, 1 mM EDTA; 5 µM compound, 10 µM strand; weak new band at 682 nm
[3] = test system: KRAS (DNA, G4) AGGGCGGTGTGGGAAGAGGGAAGAGGGGGAGG; assay: UV-Vis absorption titration, Job plot, fluorescence; details: K+ 50 mM (KCl); 10 mM Tris-HCl pH 7.0, 1 mM EDTA, 25 °C; 5 µM compound; Scatchard two-site, constants not given
[4] = test system: M3Q (DNA, G4) GAGGGAGGGAGGGAGAGGGA; assay: as above; details: K+ 50 mM (KCl); 10 mM Tris-HCl pH 7.0, 1 mM EDTA, 25 °C; 5 µM compound; Scatchard two-site, constants not given
[5] = test system: Hum24 (DNA, G4) TTAGGGTTAGGGTTAGGGTTAGGG; assay: as above; details: K+ 50 mM (KCl); 10 mM Tris-HCl pH 7.0, 1 mM EDTA, 25 °C; 5 µM compound; Scatchard two-site, constants not given

For C[N+]1(CCOc2ccc(-c3c4nc(c(-c5ccc(OCC[N+]6(C)CCCCC6)cc5)c5ccc([nH]5)c(-c5ccc(OCC[N+]6(C)CCCCC6)cc5)c5nc(c(-c6ccc(OCC[N+]7(C)CCCCC7)cc6)c6ccc3[nH]6)C=C5)C=C4)cc2)CCCCC1, the binding [1] was “yes”, the binding [2] was “weak” and the binding [3] was “yes”. For the same compound, the binding [4] was “yes” and the binding [5] was “yes”.
